Data reported in patent US5919771A, “Urea and thiourea derivatives of glycopeptides” (Eli Lilly and Company, priority 1998, dated 1999).

Assays:
Type in all cases: cell-based
[1] = system: Streptococcus pyogenes C203; assay: MIC, standard broth micro-dilution assay, SPY C203
Experimental: (§1) The antibacterial efficacy of the present compounds is illustrated by Table II. The minimal inhibitory concentrations (MICs) were determined using a standard broth micro-dilution assay.

[2] = system: Staphylococcus epidermidis 270; assay: MIC, standard broth micro-dilution assay, SE 270
Experimental: as §1

[3] = system: Staphylococcus haemolyticus 105; assay: MIC, standard broth micro-dilution assay, SH 105
Experimental: as §1

[4] = system: Enterococcus faecium and faecalis (SENSITIVE); settings: geometric mean of 4-6 isolates
Experimental: as §1

[5] = system: Enterococcus faecium and faecalis (RESISTANT); settings: geometric mean of 4-6 isolates
Experimental: as §1

[6] = system: Staphylococcus haemolyticus 415; assay: MIC, standard broth micro-dilution assay, SH 415
Experimental: as §1

[7] = system: Staphylococcus aureus 447; assay: MIC, standard broth micro-dilution assay, SA 447
Experimental: as §1

[8] = system: Streptococcus pneumoniae P1; assay: MIC, standard broth micro-dilution assay, SPN P1
Experimental: as §1

[9] = system: Staphylococcus aureus 489; assay: MIC, standard broth micro-dilution assay, SA 489
Experimental: as §1

[10] = system: Staphylococcus aureus 446; assay: MIC, standard broth micro-dilution assay, SA 446
Experimental: as §1

Row | SMILES | Minimal Inhibitory Concentration (MIC) SPY C203 [1] | Minimal Inhibitory Concentration (MIC) SE 270 [2] | Minimal Inhibitory Concentration (MIC) SH 105 [3] | Minimal Inhibitory Concentration (MIC) SENSITIVE [4] | Minimal Inhibitory Concentration (MIC) RESISTANT [5] | Minimal Inhibitory Concentration (MIC) SH 415 [6] | Minimal Inhibitory Concentration (MIC) SA 447 [7] | Minimal Inhibitory Concentration (MIC) SPN P1 [8] | Minimal Inhibitory Concentration (MIC) SA 489 [9] | Minimal Inhibitory Concentration (MIC) SA 446 [10]
1 | CC(C)CC(C(=O)NC1C(=O)NC(CC(N)=O)C(=O)NC2C(=O)NC3C(=O)NC(C(=O)NC(C(=O)O)c4cc(O)cc(O)c4-c4cc3ccc4O)C(OC3CC(C)(N)C(O)C(C)O3)c3ccc(c(Cl)c3)Oc3cc2cc(c3OC2OC(CO)C(O)C(O)C2OC2CC(C)(N)C(O)C(C)O2)Oc2ccc(cc2Cl)C1O)N(C)C(=S)Nc1ccccc1 (stereo not drawn) [Example 1, N^LEU -(PHENYLTHIOCARBAMOYL)A82846B] | 2 | 8 | 64 | 16 | > 128 | > 64 | 8 | 2 | 4 | 8
2 | CC(C)C[C@H](C(=O)N[C@H]1C(=O)N[C@@H](CC(N)=O)C(=O)N[C@H]2C(=O)N[C@H]3C(=O)N[C@H](C(=O)N[C@H](C(=O)O)c4cc(O)cc(O)c4-c4cc3ccc4O)[C@H](O[C@H]3C[C@](C)(N)[C@@H](O)[C@H](C)O3)c3ccc(c(Cl)c3)Oc3cc2cc(c3O[C@@H]2O[C@H](CO)[C@@H](O)[C@H](O)[C@H]2O[C@H]2C[C@](C)(NCc3ccc(Cl)cc3)[C@@H](O)[C@H](C)O2)Oc2ccc(cc2Cl)[C@H]1O)N(C)C(=S)Nc1ccccc1 [Example 2, N^LEU -(PHENYLTHIOCARBAMOYL)-N^DISACC -(p-CHLOROBENZYL)A82846B] | 0.125 | 4 | 8 | 3.4 | 128 | 16 | 2 | 0.25 | 2 | 2
3 | CC(C)C[C@H](C(=O)N[C@H]1C(=O)N[C@@H](CC(N)=O)C(=O)N[C@H]2C(=O)N[C@H]3C(=O)N[C@H](C(=O)N[C@H](C(=O)O)c4cc(O)cc(O)c4-c4cc3ccc4O)[C@H](O[C@H]3C[C@](C)(N)[C@@H](O)[C@H](C)O3)c3ccc(c(Cl)c3)Oc3cc2cc(c3O[C@@H]2O[C@H](CO)[C@@H](O)[C@H](O)[C@H]2O[C@H]2C[C@](C)(NCc3ccc(-c4ccccc4)cc3)[C@@H](O)[C@H](C)O2)Oc2ccc(cc2Cl)[C@H]1O)N(C)C(=S)Nc1ccccc1 [Example 4, N^LEU -(PHENYLTHIOCARBAMOYL)-N^DISACC -(p-PHENYLBENZYL)A82846B] | ≤ 0.06 | 0.5 | 2 | 4 | 14 | 1 | 1 | 0.125 | 0.125 | 2
4 | CC(C)CC(C(=O)NC1C(=O)NC(CC(N)=O)C(=O)NC2C(=O)NC3C(=O)NC(C(=O)NC(C(=O)O)c4cc(O)cc(O)c4-c4cc3ccc4O)C(OC3CC(C)(N)C(O)C(C)O3)c3ccc(c(Cl)c3)Oc3cc2cc(c3OC2OC(CO)C(O)C(O)C2OC2CC(C)(N)C(O)C(C)O2)Oc2ccc(cc2Cl)C1O)N(C)C(=S)Nc1cccc2ccccc12 (stereo not drawn) [Example 5, N^LEU -(1-NAPHTHYLTHIOCARBAMOYL)A82846B] | 0.5 | 32 | 64 | 9.5 | > 128 | > 64 | 8 | 1 | > 64 | 8
5 | CC(C)CC(C(=O)NC1C(=O)NC(CC(N)=O)C(=O)NC2C(=O)NC3C(=O)NC(C(=O)NC(C(=O)O)c4cc(O)cc(O)c4-c4cc3ccc4O)C(OC3CC(C)(N)C(O)C(C)O3)c3ccc(c(Cl)c3)Oc3cc2cc(c3OC2OC(CO)C(O)C(O)C2OC2CC(C)(NCc3ccc(Cl)cc3)C(O)C(C)O2)Oc2ccc(cc2Cl)C1O)N(C)C(=S)Nc1cccc2ccccc12 (stereo not drawn) [Example 6, N^LEU -(1-NAPHTHYLTHIOCARBAMOYL)-N^DISACC -(p-CHLOROBENZYL)A82846B] | ≤ 0.06 | 64 | 4 | 5 | 128 | 8 | 4 | ≤ 0.06 | 16 | 2
6 | CC(C)CC(C(=O)NC1C(=O)NC(CC(N)=O)C(=O)NC2C(=O)NC3C(=O)NC(C(=O)NC(C(=O)O)c4cc(O)cc(O)c4-c4cc3ccc4O)C(OC3CC(C)(N)C(O)C(C)O3)c3ccc(c(Cl)c3)Oc3cc2cc(c3OC2OC(CO)C(O)C(O)C2OC2CC(C)(NCc3ccc(Oc4ccccc4)cc3)C(O)C(C)O2)Oc2ccc(cc2Cl)C1O)N(C)C(=S)Nc1cccc2ccccc12 (stereo not drawn) [Example 7, N^LEU -(1-NAPHTHYLTHIOCARBAMOYL)-N^DISACC -(p-PHENOXYBENZYL)A82846B] | 0.25 | 0.5 | 4 | 3 | 19 | 2 | 1 | ≤ 0.06 | 2 | 4
